These results are taken from patent publication USRE37886E1, “1-(1,2-Disubstituted piperidinyl)-4-substituted piperazine derivatives” (Janssen Pharmaceuticals, N.V., priority 1995, dated 2002).

The subject of data set [1] is substance P induced plasma extravasation. Kind of data set: Antagonism of substance P induced plasma extravasation in guinea-pigs. Format: in vivo. As to conditions: lowest active dose, female guinea-pigs; for LAD nose: compound 1 hour prior to substance P (2 mg/kg, femoral artery), blue colouring of nose 10 minutes after challenge; for LAD conjunctiva / LAD forepaws / LAD trachea / LAD urinary bladder: compound 1 hour prior to substance P; for LAD conjunctiva: blue colouring of conjunctiva 10 minutes after challenge; for LAD forepaws: blue colouring of forepaws 10 minutes after challenge; for LAD trachea: blue colouring of trachea 30 minutes after challenge; for LAD urinary bladder: blue colouring of urinary bladder 30 minutes after challenge. The method in brief:
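Female guinea-pigs dosed with compound 1 hour before femoral-artery substance P (2 mg/kg) plus Evans Blue (30 mg/kg). Blue colouring of nose, forepaws and conjunctiva scored at 10 minutes, trachea and bladder at 30 minutes; value is lowest active dose (mg/kg).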

Data set [2] has as its system substance-P induced relaxation of the pig coronary arteries. Kind of data set: Antagonism of substance-P induced relaxation of the pig coronary arteries. The class given is cell-based. The note with it: concentration at which 50% of the response to 10^−9 M substance P was inhibited, 30 minutes incubation, prostaglandin F2a precontracted segments. In short, it runs like this: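 Inverted pig coronary artery segments (endothelium outside) in Krebs-Henseleit, 37 °C, O2/CO2 95/5, precontracted with prostaglandin F2a (10^−5 M); substance P 3×10^−10 and 10^−9 M added cumulatively. Compound incubated 30 min before repeat challenge; IC50 is concentration inhibiting 50% of the relaxation to 10^−9 M substance P.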

pIC50: −log10 of the molar value.

`O=C(c1cc(C(F)(F)F)cc(C(F)(F)F)c1)N1CC[C@H](N2CCN(Cc3ccccc3)CC2)C[C@@H]1Cc1ccccc1` (racemic) [Compound 16, (±)-cis-1-[3,5-bis(trifluoromethyl)benzoyl]-2-(phenylmethyl)-4-[4-(phenylmethyl)-1-piperazinyl]piperidine] had a melting point of 143.8 °C. In data set [1], this molecule came in with an LAD nose of 40.0 mg/kg, an LAD conjunctiva of 40.0 mg/kg, an LAD forepaws of 40.0 mg/kg and an LAD trachea of over 40 mg/kg. This molecule yielded an LAD urinary bladder in data set [1] of over 40 mg/kg.
In data set [2], `O=C(CN1CCN(C2CCN(C(=O)c3cc(C(F)(F)F)cc(C(F)(F)F)c3)C(Cc3ccccc3)C2)CC1)Nc1c(Cl)cccc1Cl` (racemic) [Compound 45] showed a pIC50 of 9.82. Further, in data set [1], the LAD nose stood at 0.63 mg/kg, the LAD conjunctiva turned out to be 0.63 mg/kg, the LAD forepaws is 0.63 mg/kg and the LAD trachea is over 40 mg/kg. The same molecule came in with an LAD urinary bladder in data set [1] of 2.50 mg/kg.
In data set [2], `O=C(CN1CCN(C2CCN(C(=O)c3cc(C(F)(F)F)cc(C(F)(F)F)c3)C(Cc3ccccc3)C2)CC1)NC1(c2ccccc2)CCCCC1` (stereo not drawn) [Compound 48] had a pIC50 of 9.59. In data set [1], this molecule registered an LAD nose of 2.50 mg/kg, an LAD conjunctiva of 2.50 mg/kg, an LAD forepaws of 2.50 mg/kg and an LAD trachea of 2.50 mg/kg. Further, the LAD urinary bladder in data set [1] was 2.50 mg/kg.
Turning to `Cc1cc(C)cc(OC(=O)C(c2ccccc2)N2CCN([C@H]3CCN(C(=O)c4cc(C(F)(F)F)cc(C(F)(F)F)c4)[C@@H](Cc4ccccc4)C3)CC2)c1` (mixture of isomers) [Compound 43, (±)-3,5-dimethylphenyl cis-4-[1-[3,5-bis(trifluoromethyl)benzoyl]-2-(phenylmethyl)-4-piperidinyl]-α-phenyl-1-piperazineacetate], the melting point is 88.1 °C. For the same molecule, the negative-log IC50 (pIC50) in data set [2] (Sus scrofa, 0.5 h) was 8.25.
`Cc1cccc(C)c1NC(=O)CN1CCN(C2CCN(C(=O)c3cc(C(F)(F)F)cc(C(F)(F)F)c3)C(Cc3ccc(F)c(F)c3)C2)CC1` (racemic) [Compound 134] showed a pIC50 in data set [2] of 10.40. In addition, in data set [1], the LAD nose is recorded as 10.0 mg/kg, the LAD conjunctiva was 10.0 mg/kg, the LAD forepaws is recorded as 10.0 mg/kg and the LAD trachea is given as 10.0 mg/kg. This molecule registered an LAD urinary bladder in data set [1] of 10.0 mg/kg.
In data set [2], `Cc1cccc(C)c1NC(=O)CN1CCN([C@@H]2CCN(C(=O)c3cc(C(F)(F)F)cc(C(F)(F)F)c3)[C@@H](Cc3ccccc3)C2)CC1.O=C(O)C[C@H](O)C(=O)O` (relative stereo) [Compound 95, (+)-(B)-trans-4-[1-[3,5-bis(trifluoromethyl)benzoyl]-2-(phenylmethyl)-4-piperidinyl]-N-(2,6-dimethylphenyl)-1-piperazine acetamide. (L)-malic acid (1:1)] showed a pIC50 of 10.00. In addition, in data set [1], the LAD nose turned out to be 0.31 mg/kg, the LAD conjunctiva came to 0.31 mg/kg, the LAD forepaws was found to be 0.31 mg/kg and the LAD trachea is 0.63 mg/kg. This molecule also registered an LAD urinary bladder in data set [1] of 2.50 mg/kg.
In turn, `Cc1cccc(C)c1NC(=O)CN1CCN(C2CCN(C(=O)c3cc(C(F)(F)F)cc(C(F)(F)F)c3)C(Cc3ccc(C(F)(F)F)cc3)C2)CC1.O=C(O)/C=C/C(=O)O` (single isomer, unassigned) [Compound 136] showed a pIC50 in data set [2] of 9.51. For the same molecule, in data set [1], the LAD nose is recorded as 2.50 mg/kg, the LAD conjunctiva amounted to 2.50 mg/kg, the LAD forepaws came out at 2.50 mg/kg and the LAD trachea is listed as 2.50 mg/kg. The molecule further showed an LAD urinary bladder in data set [1] of 2.50 mg/kg.
As to `O=C(c1cc(C(F)(F)F)cc(C(F)(F)F)c1)N1CCC(N2CCN(CCn3c(=O)[nH]c4ccccc43)CC2)CC1Cc1ccccc1` (stereo not drawn) [Compound 19], the pIC50 in data set [2] was 9.27. In data set [1], this molecule had an LAD nose of 2.50 mg/kg, an LAD conjunctiva of 2.50 mg/kg, an LAD forepaws of 2.50 mg/kg and an LAD trachea of 10.0 mg/kg. In addition, the LAD urinary bladder in data set [1] is over 40 mg/kg.
`Cc1cccc(C)c1NC(=O)CN1CCN(C2CCN(C(=O)c3cc(C(F)(F)F)cc(C(F)(F)F)c3)C(Cc3ccccc3)C2)CC1` (racemic) [Compound 59] gave a pIC50 in data set [2] of 8.92. In data set [1], this molecule came in with an LAD nose of 2.50 mg/kg, an LAD conjunctiva of 2.50 mg/kg, an LAD forepaws of 2.50 mg/kg and an LAD trachea of 5.00 mg/kg. This molecule also showed an LAD urinary bladder in data set [1] of 5.00 mg/kg.
`O=C(C(c1ccccc1)N1CCN(C2CCN(C(=O)c3cc(C(F)(F)F)cc(C(F)(F)F)c3)C(Cc3ccccc3)C2)CC1)N1CCCC1` (mixture of isomers) [Compound 52] had a pIC50 in data set [2] of 8.96. In data set [1], the LAD nose is listed as 0.63 mg/kg, the LAD conjunctiva was determined as 2.50 mg/kg, the LAD forepaws was 0.63 mg/kg and the LAD trachea came out at 10.0 mg/kg. In addition, the LAD urinary bladder in data set [1] was found to be 10.0 mg/kg.
In turn, `O=C(c1cc(C(F)(F)F)cc(C(F)(F)F)c1)N1CC[C@@H](N2CCN(Cc3ccccc3)CC2)C[C@@H]1Cc1ccccc1` (racemic) [Compound 17, (±)-trans-1-[3,5-bis(trifluoromethyl)benzoyl]-2-(phenylmethyl)-4-[4-(phenylmethyl)-1-piperazinyl]piperidine (E)-2-butenedioate(1:2)] displayed a melting point of 240.3 °C. The molecule also had a pIC50 in data set [2] (Sus scrofa, 0.5 h) of 8.77. In data set [1], this molecule yielded an LAD nose of 10.0 mg/kg, an LAD conjunctiva of 10.0 mg/kg, an LAD forepaws of 10.0 mg/kg and an LAD trachea of over 40 mg/kg. The LAD urinary bladder in data set [1] was determined as 10.0 mg/kg.
In the case of `Cc1cccc(C)c1NC(=O)CCN1CCN(C2CCN(C(=O)c3cc(C(F)(F)F)cc(C(F)(F)F)c3)C(Cc3ccccc3)C2)CC1` (racemic) [Compound 105], in data set [2], the pIC50 was 8.98. Further, in data set [1], the LAD nose worked out at 2.50 mg/kg, the LAD conjunctiva was determined as 2.50 mg/kg, the LAD forepaws worked out at 2.50 mg/kg and the LAD trachea is over 40 mg/kg. The LAD urinary bladder in data set [1] was over 40 mg/kg.
With `Cc1ncc(Cn2c(N3CCCN(C4CCN(C(=O)c5cc(C(F)(F)F)cc(C(F)(F)F)c5)C(Cc5ccccc5)C4)CC3)nc3ccccc32)o1` (stereo not drawn) [Compound 34], in data set [2], the pIC50 was 9.46. Further, in data set [1], the LAD nose came out at 2.50 mg/kg, the LAD conjunctiva amounted to 2.50 mg/kg, the LAD forepaws worked out at 10.0 mg/kg and the LAD trachea came to 10.0 mg/kg. The molecule also gave an LAD urinary bladder in data set [1] of 10.0 mg/kg.
In turn, `O=C(O)C=CC(=O)O.O=C(O)C=CC(=O)O.O=C(c1cc(C(F)(F)F)cc(C(F)(F)F)c1)N1CCC(N2CCCN(Cc3ccccc3)CC2)CC1Cc1ccccc1` (racemic) [Compound 68] gave a pIC50 in data set [2] of 8.23. In data set [1], this molecule had an LAD nose of 10.0 mg/kg, an LAD conjunctiva of 40.0 mg/kg, an LAD forepaws of 10.0 mg/kg and an LAD trachea of over 40 mg/kg. This molecule had an LAD urinary bladder in data set [1] of over 40 mg/kg.
In turn, `CCOCCn1c(CN2CCN(C3CCN(C(=O)c4cc(C(F)(F)F)cc(C(F)(F)F)c4)C(Cc4ccccc4)C3)CC2)nc2cccnc21` (racemic) [Compound 25] showed a pIC50 in data set [2] of 9.10. Further, in data set [1], the LAD nose was found to be 2.50 mg/kg, the LAD conjunctiva is on record as 10.0 mg/kg, the LAD forepaws turned out to be 2.50 mg/kg and the LAD trachea is on record as over 40 mg/kg. In data set [1], the LAD urinary bladder is listed as over 40 mg/kg.
In the case of `Cc1cccc(C)c1NC(=O)CN1CCN([C@@H]2CCN(C(=O)c3cc(C(F)(F)F)cc(C(F)(F)F)c3)[C@@H](Cc3cc(F)cc(F)c3)C2)CC1` (racemic) [Compound 133, (±)-trans-4-[1-[3,5-bis(trifluoromethyl)benzoyl]-2-[(3,5-difluorophenyl)methyl]-4-piperdinyl]-N-(2,6-dimethylphenyl)-1-piperazineacetamide], in data set [2], the pIC50 was 9.21. Besides, in data set [1], the LAD nose turned out to be 2.50 mg/kg, the LAD conjunctiva is reported as 2.50 mg/kg, the LAD forepaws was 2.50 mg/kg and the LAD trachea came out at 10.0 mg/kg. The LAD urinary bladder in data set [1] stood at 10.0 mg/kg.

The term melting point denotes the temperature, or range, at which the solid turns liquid. Usually pIC50 stands for −log10 of the IC50, conventionally taken in molar units. High values mean a low IC50, low ones a high IC50.
